Laboratory results reported in US11524951B2, “2-(2,4,5-substituted-anilino)pyrimidine compounds” (AstraZeneca AB, priority 2011, dated 2022).

Experiments:
Assay type in all cases: cell-based
Exon19 deletion EGFR = target: T1, Exon19 deletion EGFR (Homo sapiens, UniProt P00533, DEL746-750); assay: Exon19 deletion EGFR (activating single mutant) cellular phosphorylation assay; conditions: PC9 human lung cells (Exon 19 deletion EGFR); endogenous p-EGFR in cell lysates by ELISA; 2 h with compound; read-out: Assay 1 (IC50)
T1 construct: Assays to measure cellular phosphorylation of endogenous p-EGFR in cell lysates; endogenous in cells; host or cells: PC9 (human lung cell line)
T1 sequence (P00533 with tags, fused parts or gaps DEL746-750): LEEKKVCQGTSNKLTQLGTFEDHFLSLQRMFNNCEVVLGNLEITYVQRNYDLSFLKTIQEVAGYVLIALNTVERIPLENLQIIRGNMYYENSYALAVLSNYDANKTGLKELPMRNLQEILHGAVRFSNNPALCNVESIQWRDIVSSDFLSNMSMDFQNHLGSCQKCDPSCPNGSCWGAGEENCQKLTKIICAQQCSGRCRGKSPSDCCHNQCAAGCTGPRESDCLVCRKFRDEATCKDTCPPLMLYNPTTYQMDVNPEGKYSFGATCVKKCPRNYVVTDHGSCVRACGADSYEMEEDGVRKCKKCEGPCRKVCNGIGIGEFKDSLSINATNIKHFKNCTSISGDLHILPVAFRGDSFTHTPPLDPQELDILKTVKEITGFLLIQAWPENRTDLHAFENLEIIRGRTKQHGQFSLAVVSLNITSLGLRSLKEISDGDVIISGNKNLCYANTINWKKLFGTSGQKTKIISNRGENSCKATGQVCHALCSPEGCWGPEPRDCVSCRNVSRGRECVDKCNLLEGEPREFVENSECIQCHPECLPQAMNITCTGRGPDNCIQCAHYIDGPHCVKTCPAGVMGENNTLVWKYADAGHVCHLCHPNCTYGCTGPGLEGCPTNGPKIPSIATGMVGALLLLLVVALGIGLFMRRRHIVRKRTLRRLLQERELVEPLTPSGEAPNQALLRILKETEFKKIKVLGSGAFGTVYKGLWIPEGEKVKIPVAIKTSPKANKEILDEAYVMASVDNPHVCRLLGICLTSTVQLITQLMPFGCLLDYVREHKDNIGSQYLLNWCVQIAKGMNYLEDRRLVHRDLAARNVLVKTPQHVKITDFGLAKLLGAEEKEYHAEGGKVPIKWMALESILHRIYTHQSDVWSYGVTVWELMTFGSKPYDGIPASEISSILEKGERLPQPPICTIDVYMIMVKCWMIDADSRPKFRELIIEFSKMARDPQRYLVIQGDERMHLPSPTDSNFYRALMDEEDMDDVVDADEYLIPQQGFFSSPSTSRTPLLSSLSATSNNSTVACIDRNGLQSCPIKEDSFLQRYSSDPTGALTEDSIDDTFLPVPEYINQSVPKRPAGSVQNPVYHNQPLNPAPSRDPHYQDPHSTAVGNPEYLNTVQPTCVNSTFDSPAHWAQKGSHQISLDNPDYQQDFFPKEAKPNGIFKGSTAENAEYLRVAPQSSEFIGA
Method: Assay 1: Exon19 Deletion EGFR (Activating Single Mutant) Cellular Phosphorylation Assay
The human lung cell line PC9 (Exon 19 deletion EGFR) were obtained from the American type Culture Collection. […] Cells were grown in a humidified incubator at 37° C. with 5% CO2. Assays to measure cellular phosphorylation of endogenous p-EGFR in cell lysates were carried out according to the protocol described in the R&D Systems DuoSet IC Human Phospho-EGF R ELISA (R&D Systems catalogue number #DYC1095). 40 μL of cells were seeded (10000 cells/well) in growth medium in Corning black, clear-bottomed 384-well plates and incubated at 37° C. with 5% CO2 overnight. […] Plates were incubated for a further 2 h, then following aspiration of medium, 40 μL 1× lysis buffer was added to each well. Greiner black high bind 384-well plates were coated with capture antibody and then blocked with 3% BSA. Following removal of block, […], of lysate were transferred to the Greiner black high bind 384-well plates and incubated for 2 hours. Following aspiration and washing of the plates with PBS, 20 μL of detection antibody were added and incubated for 2 hours. […] The data obtained with each compound was exported into a suitable software package (such as Origin) to perform curve fitting analysis.

L858R/T790M EGFR = target: T2, L858R/T790M EGFR (Homo sapiens, UniProt P00533, L858R/T790M); assay: L858R/T790M EGFR (double mutant) cellular phosphorylation assay; conditions: NCI-H1975 human lung cells; endogenous p-EGFR in cell lysates by ELISA; 2 h with compound
T2 construct: Assays to measure cellular phosphorylation of endogenous p-EGFR in cell lysates; endogenous in cells; host or cells: NCI-H1975 (human lung cell line)
T2 sequence (P00533 25-1210 T790M/L858R): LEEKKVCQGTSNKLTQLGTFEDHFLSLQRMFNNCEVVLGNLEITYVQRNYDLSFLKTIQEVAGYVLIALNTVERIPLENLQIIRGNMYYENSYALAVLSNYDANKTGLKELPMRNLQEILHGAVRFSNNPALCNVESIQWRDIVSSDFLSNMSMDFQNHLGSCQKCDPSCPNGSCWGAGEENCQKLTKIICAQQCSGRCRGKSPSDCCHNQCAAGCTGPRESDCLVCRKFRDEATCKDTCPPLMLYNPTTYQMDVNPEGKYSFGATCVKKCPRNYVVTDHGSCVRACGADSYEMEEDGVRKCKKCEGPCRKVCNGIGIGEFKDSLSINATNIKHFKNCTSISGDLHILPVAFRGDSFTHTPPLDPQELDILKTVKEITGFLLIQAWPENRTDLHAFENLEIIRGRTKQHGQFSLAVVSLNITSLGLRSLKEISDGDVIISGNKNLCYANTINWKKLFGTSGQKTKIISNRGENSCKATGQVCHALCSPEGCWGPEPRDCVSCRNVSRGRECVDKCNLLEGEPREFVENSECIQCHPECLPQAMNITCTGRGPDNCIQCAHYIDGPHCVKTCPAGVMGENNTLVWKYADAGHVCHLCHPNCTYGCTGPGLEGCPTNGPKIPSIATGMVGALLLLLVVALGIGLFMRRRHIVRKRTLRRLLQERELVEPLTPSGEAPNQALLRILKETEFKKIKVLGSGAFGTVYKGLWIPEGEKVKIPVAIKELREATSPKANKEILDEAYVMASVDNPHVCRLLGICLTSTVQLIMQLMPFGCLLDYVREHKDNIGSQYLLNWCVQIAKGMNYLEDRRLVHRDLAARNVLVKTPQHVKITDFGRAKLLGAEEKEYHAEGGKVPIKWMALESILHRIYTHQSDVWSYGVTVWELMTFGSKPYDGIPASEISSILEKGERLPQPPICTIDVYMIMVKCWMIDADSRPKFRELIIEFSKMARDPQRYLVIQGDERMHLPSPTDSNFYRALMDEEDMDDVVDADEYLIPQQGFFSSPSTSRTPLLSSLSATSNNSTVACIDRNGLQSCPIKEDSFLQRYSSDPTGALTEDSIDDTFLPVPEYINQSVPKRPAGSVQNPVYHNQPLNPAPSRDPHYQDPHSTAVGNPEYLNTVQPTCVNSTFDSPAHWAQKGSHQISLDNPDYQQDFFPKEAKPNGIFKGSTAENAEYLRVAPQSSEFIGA
Method: Assay 2: L858R/T790M EGFR (Double Mutant) Cellular Phosphorylation Assay
The human lung cell lines NCI-H1975 were obtained from the American type Culture Collection. […] Cells were grown in a humidified incubator at 37° C. with 5% CO2.
Assays to measure cellular phosphorylation of endogenous p-EGFR in cell lysates were carried out according to the protocol described in the R&D Systems DuoSet IC Human Phospho-EGF R ELISA (R&D Systems catalogue number #DYC1095).
40 μL of cells were seeded (10000 cells/well) in growth medium in Corning black, clear-bottomed 384-well plates and incubated at 37° C. with 5% CO2 overnight. […] Plates were incubated for a further 2 h and following aspiration of medium, 40 μL 1× lysis buffer was added to each well. Greiner black high bind 384-well plates were coated with capture antibody and then blocked with 3% BSA. Following removal of block, 15 μL of lysate were transferred to the Greiner black high bind 384-well plates and incubated for 2 hours. Following aspiration and washing of the plates with PBS, 20 μL of detection antibody were added and incubated for 2 hours. […] 20 μL QuantaBlu stop solution were added to plates and fluorescence read on an Envision plate reader using
The data obtained with each compound was exported into a suitable software package (such as Origin) to perform curve fitting analysis.

Wild-type EGFR = target: T3, Wild-type EGFR (Homo sapiens, UniProt P00533); assay: Wild-type EGFR cellular phosphorylation assay; conditions: LoVo human colon cells; endogenous p-EGFR in cell lysates by ELISA; 2 h with compound, then stimulated 100 ng/ml for 10 minutes; read-out: Assay 3 (IC50)
T3 construct: Assays to measure cellular phosphorylation of endogenous p-EGFR in cell lysates; endogenous in cells; host or cells: LoVo (human colon cell line)
T3 sequence (P00533 25-1210): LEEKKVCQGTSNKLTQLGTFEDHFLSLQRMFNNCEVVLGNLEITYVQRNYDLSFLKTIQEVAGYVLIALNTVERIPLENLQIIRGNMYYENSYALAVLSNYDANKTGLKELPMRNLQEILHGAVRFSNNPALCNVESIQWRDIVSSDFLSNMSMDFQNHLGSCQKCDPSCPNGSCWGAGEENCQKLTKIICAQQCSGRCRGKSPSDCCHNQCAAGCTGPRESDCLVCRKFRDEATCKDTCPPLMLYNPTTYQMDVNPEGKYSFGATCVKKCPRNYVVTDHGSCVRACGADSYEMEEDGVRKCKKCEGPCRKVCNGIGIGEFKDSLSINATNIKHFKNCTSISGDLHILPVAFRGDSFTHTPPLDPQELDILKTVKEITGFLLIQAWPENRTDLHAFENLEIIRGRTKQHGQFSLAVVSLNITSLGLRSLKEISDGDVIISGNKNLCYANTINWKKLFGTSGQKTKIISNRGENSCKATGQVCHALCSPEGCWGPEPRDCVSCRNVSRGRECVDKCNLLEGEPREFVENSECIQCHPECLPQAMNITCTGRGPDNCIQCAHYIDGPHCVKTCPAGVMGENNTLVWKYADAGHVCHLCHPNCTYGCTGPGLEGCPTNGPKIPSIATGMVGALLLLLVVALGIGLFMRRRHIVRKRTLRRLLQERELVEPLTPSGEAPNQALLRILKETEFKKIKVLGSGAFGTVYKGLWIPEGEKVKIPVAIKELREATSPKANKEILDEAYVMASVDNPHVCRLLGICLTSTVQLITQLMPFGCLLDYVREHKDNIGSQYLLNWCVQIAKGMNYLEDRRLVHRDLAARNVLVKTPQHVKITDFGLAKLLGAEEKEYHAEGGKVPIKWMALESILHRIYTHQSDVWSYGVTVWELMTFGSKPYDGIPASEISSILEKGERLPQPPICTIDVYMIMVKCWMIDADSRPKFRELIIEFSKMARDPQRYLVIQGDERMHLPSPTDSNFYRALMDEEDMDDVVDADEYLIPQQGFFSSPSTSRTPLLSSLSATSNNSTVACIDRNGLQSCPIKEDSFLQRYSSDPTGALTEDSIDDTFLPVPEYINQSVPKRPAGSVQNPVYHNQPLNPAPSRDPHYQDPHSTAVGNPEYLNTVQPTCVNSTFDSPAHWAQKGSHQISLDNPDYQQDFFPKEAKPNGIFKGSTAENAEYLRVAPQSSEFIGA
Method: Assay 3: Wild-Type EGFR Cellular Phosphorylation Assay
The human colon cell line LoVo were obtained from the American type Culture Collection. […] Cells were grown in a humidified incubator at 37° C. with 5% CO2. Assays to measure cellular phosphorylation of endogenous p-EGFR in cell lysates were carried out according to the protocol described in the R&D Systems DuoSet IC Human Phospho-EGF R ELISA (R&D Systems catalogue number #DYC1095). 40 μL of cells were seeded (15000 cells/well) in growth medium in Corning black, clear-bottomed 384-well plates and incubated at 37° C. with 5% CO2 overnight. […] Plates were incubated for a further 2 h then stimulated with 100 ng/ml for 10 minutes and following aspiration of medium, 40 μL 1× lysis buffer was added to each well. Greiner black high bind 384-well plates were coated with capture antibody and then blocked with 3% BSA. […] Following aspiration and washing of the plates with PBS, 20 μL of detection antibody were added and incubated for 2 hours. […] The data obtained with each compound was exported into a suitable software package (such as Origin) to perform curve fitting analysis.

Row | SMILES | IC50 (Exon19 deletion EGFR) | IC50 (L858R/T790M EGFR) | IC50 (Wild-type EGFR)
1 | C=CC(=O)Nc1cc(Nc2ncc(C#N)c(-c3c[nH]c4ccccc34)n2)c(OC)cc1N1CCN(C)CC1 [Example 27, N-(5-{[5-Cyano-4-(1H-indol-3-yl)pyrimidin-2-yl]amino}-4-methoxy-2-{4-methylpiperazin-1-yl}phenyl)prop-2-enamide] | 5.61 nM | 11.4 nM | 318 nM
2 | C=CC(=O)Nc1cc(Nc2ncc(C#N)c(-c3cnn4ccccc34)n2)c(OC)cc1N1CCN(C)CC1 [Example 14, N-{5-[(5-Cyano-4-pyrazolo[1,5-a]pyridin-3-ylpyrimidin-2-yl)amino]-4-methoxy-2-[4-methylpiperazin-1-yl]phenyl}prop-2-enamide] | 53.3 nM | 19.1 nM | 12500 nM
3 | C=CC(=O)Nc1cc(Nc2ncc(Cl)c(-c3cn(C)c4ccccc34)n2)c(OC)cc1N1CC[C@@H](N(C)C)C1 [Example 21, N-(5-{[5-Chloro-4-(1-methylindol-3-yl)pyrimidin-2-yl]amino}-2-{(3R)-3-dimethylaminopyrrolidin-1-yl}-4-methoxyphenyl)prop-2-enamide] | 2.95 nM | 2.34 nM | 128 nM
4 | C=CC(=O)Nc1cc(Nc2ncc(Cl)c(-c3c[nH]c4ccccc34)n2)c(OC)cc1N1CCN(C)CC1 [Example 17, N-(5-{[5-Chloro-4-(1H-indol-3-yl)pyrimidin-2-yl]amino}-4-methoxy-2-{4-methylpiperazin-1-yl}phenyl)prop-2-enamide] | 23.4 nM | 5.64 nM | 772 nM
5 | C=CC(=O)Nc1cc(Nc2ncc(Cl)c(-c3cnn4ccccc34)n2)c(OC)cc1N1CCN(CC(=O)N(C)C)CC1 [Example 10, N-{5-[(5-Chloro-4-pyrazolo[1,5-a]pyridin-3-ylpyrimidin-2-yl)amino]-2-[4-(2-dimethylamino-2-oxoethyl)piperazin-1-yl]-4-methoxyphenyl}prop-2-enamide] | 73.8 nM | 40 nM | 8430 nM
6 | C=CC(=O)Nc1cc(Nc2ncc(C)c(-c3cnn4ccccc34)n2)c(OC)cc1C1=CCN(C)CC1 [Example 1, N-{4-Methoxy-2-[1-methyl-3,6-dihydro-2H-pyridin-4-yl]-5-[(5-methyl-4-pyrazolo[1,5-a]pyridin-3-ylpyrimidin-2-yl)amino]phenyl}prop-2-enamide] | 7.61 nM | 4.96 nM | 474 nM
7 | C=CC(=O)Nc1cc(Nc2ncc(C)c(-c3c[nH]c4ccccc34)n2)c(OC)cc1N1CCN(C)CC1 [Example 3, N-(5-{[4-(1H-Indol-3-yl)-5-methylpyrimidin-2-yl]amino}-4-methoxy-2-[4-methylpiperazin-1-yl]phenyl)prop-2-enamide] | 10.5 nM | 15.5 nM | 522 nM
8 | C=CC(=O)Nc1cc(Nc2ncc(C)c(-c3cn(C)c4ccccc34)n2)c(OC)cc1N1CC[C@@H](N(C)C)C1 [Example 20, N-(2-{(3R)-3-Dimethylaminopyrrolidin-1-yl}-4-methoxy-5-{[5-methyl-4-(1-methylindol-3-yl)pyrimidin-2-yl]amino}phenyl)prop-2-enamide] | 7.49 nM | 5.28 nM | 193 nM
9 | C=CC(=O)Nc1cc(Nc2nccc(-c3c[nH]c4ccccc34)n2)c(OC)cc1N1CCN(C)CC1 [Example 15, N-(5-{[4-(1H-Indol-3-yl)pyrimidin-2-yl]amino}-4-methoxy-2-{4-methylpiperazin-1-yl}phenyl)prop-2-enamide] | 14 nM | 55.2 nM | 1070 nM

More lines, now with the values ahead:

Row | IC50 (Exon19 deletion EGFR) | IC50 (L858R/T790M EGFR) | IC50 (Wild-type EGFR) | SMILES
10 | 7.08 nM | 16.8 nM | 179 nM | C=CC(=O)Nc1cc(Nc2nccc(-c3c[nH]c4ccccc34)n2)c(OC)cc1N1CC(N(C)C)C1 [Example 58, N-(2-[3-Dimethylaminoazetidin-1-yl]-5-{[4-(1H-indol-3-yl)pyrimidin-2-yl]amino}-4-methoxyphenyl)prop-2-enamide]
11 | 6.43 nM | 2.86 nM | 507 nM | C=CC(=O)Nc1cc(Nc2nccc(-c3cnn4ccccc34)n2)c(OC)cc1N1CC[C@@H]2CN(C)C[C@@H]21 [Example 55, N-[2-[(3aR,6aR)-5-Methyl-2,3,3a,4,6,6a-hexahydropyrrolo[3,4-b]pyrrol-1-yl]-4-methoxy-5-[(4-pyrazolo[1,5-a]pyridin-3-ylpyrimidin-2-yl)amino]phenyl]prop-2-enamide]
12 | 5.09 nM | 4.41 nM | 538 nM | C=CC(=O)Nc1cc(Nc2ncc(C#N)c(-c3cnn4ccccc34)n2)c(OC)cc1N1CC[C@@H](N(C)C)C1 [Example 38, N-{5-[(5-Cyano-4-pyrazolo[1,5-a]pyridin-3-ylpyrimidin-2-yl)amino]-2-[(3R)-3-dimethylaminopyrrolidin-1-yl]-4-methoxyphenyl}prop-2-enamide]
13 | 18.2 nM | 10.6 nM | 1340 nM | C=CC(=O)Nc1cc(Nc2nccc(-c3cnn4c3CCCC4)n2)c(OC)cc1N1CC[C@@H]2CN(C)C[C@@H]21 [Example 43, N-(2-{(3aR,6aR)-5-Methyl-2,3,3a,4,6,6a-hexahydropyrrolo[3,4-b]pyrrol-1-yl}-4-methoxy-5-{[4-(4,5,6,7-tetrahydropyrazolo[1,5-a]pyridin-3-yl)pyrimidin-2-yl]amino}phenyl)prop-2-enamide]
14 | 2.34 nM | 1.01 nM | 248 nM | C=CC(=O)Nc1cc(Nc2ncc(C#N)c(-c3cnn4ccccc34)n2)c(OC)cc1N(C)CCN(C)C [Example 39, N-{5-[(5-Cyano-4-pyrazolo[1,5-a]pyridin-3-ylpyrimidin-2-yl)amino]-2-[2-dimethylaminoethyl-methylamino]-4-methoxyphenyl}prop-2-enamide]
15 | 5.19 nM | 5.16 nM | 454 nM | C=CC(=O)Nc1cc(Nc2nccc(-c3cnn4c3CCCC4)n2)c(OC)cc1N(C)CCN(C)C [Example 42, N-(2-{2-Dimethylaminoethyl-methylamino}-4-methoxy-5-{[4-(4,5,6,7-tetrahydropyrazolo[1,5-a]pyridin-3-yl)pyrimidin-2-yl]amino}phenyl)prop-2-enamide]
16 | 37.5 nM | 7.34 nM | 2510 nM | C=CC(=O)Nc1cc(Nc2ncc(Cl)c(-c3cnn4ccccc34)n2)c(OC)cc1N(C)CCN1CCOCC1 [Example 31, N-{5-[(5-Chloro-4-pyrazolo[1,5-a]pyridin-3-ylpyrimidin-2-yl)amino]-4-methoxy-2-[methyl-(2-morpholin-4-ylethyl)amino]phenyl}prop-2-enamide]
17 | 129 nM | 92.9 nM | 7090 nM | C=CC(=O)Nc1cc(Nc2nccc(-c3cnn4c3CCCC4)n2)c(OC)cc1N1CC(N(C)C)C1 [Example 46, N-(2-{3-Dimethylaminoazetidin-1-yl}-4-methoxy-5-{[4-(4,5,6,7-tetrahydropyrazolo[1,5-a]pyridin-3-yl)pyrimidin-2-yl]amino}phenyl)prop-2-enamide]
